Measurements published in ChEMBL document CHEMBL1144228, “Isoxazolo[3,4-b]quinoline-3,4(1H,9H)-diones as unique, potent and selective inhibitors for Pim-1 and Pim-2 kinases: chemistry, biological activities, and molecular modeling” (Bioorg Med Chem Lett, 2008).

Experiments:
[1] = molecular target: Serine/threonine-protein kinase pim-1 (Homo sapiens, UniProt P11309); test: Inhibition of Pim1
[2] = molecular target: Serine/threonine-protein kinase pim-2 (Homo sapiens, UniProt Q9P1W9); test: Inhibition of Pim2
Chain of Serine/threonine-protein kinase pim-2 (Q9P1W9 whole entry): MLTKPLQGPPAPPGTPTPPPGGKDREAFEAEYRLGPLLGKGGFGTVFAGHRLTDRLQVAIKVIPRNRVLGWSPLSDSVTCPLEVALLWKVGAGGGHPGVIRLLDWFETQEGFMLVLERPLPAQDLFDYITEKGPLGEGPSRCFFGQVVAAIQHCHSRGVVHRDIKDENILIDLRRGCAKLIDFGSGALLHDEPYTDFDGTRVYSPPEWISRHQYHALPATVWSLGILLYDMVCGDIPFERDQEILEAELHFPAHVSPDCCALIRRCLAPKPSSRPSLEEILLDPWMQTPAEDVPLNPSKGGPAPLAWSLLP

[3] = molecular target: T1, 5'-AMP-activated protein kinase subunit beta-1 (Homo sapiens, UniProt Q9Y478); test: Inhibition of AMPK
T1 sequence (Q9Y478 whole entry): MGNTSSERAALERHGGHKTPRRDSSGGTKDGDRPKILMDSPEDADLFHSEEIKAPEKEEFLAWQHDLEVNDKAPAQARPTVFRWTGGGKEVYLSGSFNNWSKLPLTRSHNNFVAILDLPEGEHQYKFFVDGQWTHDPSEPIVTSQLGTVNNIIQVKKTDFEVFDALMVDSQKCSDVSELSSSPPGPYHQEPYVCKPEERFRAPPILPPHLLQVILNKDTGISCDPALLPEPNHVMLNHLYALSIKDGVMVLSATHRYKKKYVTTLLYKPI

[4] = Inhibition of Aurora1
[5] = Inhibition of Aurora2
[6] = Inhibition of Casein kinase 2
[7] = molecular target: Serine/threonine-protein kinase MARK1 (Homo sapiens, UniProt Q9P0L2); test: Inhibition of MARK
Chain of Serine/threonine-protein kinase MARK1 (Q9P0L2 whole entry): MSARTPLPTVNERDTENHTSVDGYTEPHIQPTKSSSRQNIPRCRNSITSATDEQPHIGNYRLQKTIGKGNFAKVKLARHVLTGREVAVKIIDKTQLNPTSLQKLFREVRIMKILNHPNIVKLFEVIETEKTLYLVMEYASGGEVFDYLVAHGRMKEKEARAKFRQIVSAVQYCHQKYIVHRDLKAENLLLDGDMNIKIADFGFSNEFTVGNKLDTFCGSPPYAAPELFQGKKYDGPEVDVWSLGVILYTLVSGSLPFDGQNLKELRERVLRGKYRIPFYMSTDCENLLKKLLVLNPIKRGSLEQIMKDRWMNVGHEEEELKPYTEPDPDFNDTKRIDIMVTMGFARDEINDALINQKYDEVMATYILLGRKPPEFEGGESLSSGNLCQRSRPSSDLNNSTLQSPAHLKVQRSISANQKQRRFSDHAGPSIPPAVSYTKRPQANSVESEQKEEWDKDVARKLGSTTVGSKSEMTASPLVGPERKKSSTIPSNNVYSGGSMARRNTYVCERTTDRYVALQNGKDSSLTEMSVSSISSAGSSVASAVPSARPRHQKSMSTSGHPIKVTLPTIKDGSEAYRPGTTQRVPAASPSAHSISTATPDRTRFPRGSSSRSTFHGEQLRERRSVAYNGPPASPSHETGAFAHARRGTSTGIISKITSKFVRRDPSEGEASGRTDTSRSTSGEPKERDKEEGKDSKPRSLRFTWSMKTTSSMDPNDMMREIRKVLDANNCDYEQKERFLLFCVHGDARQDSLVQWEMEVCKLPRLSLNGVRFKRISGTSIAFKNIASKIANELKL

[8] = Inhibition of PKA
[9] = molecular target: T2, Protein kinase C iota type (Homo sapiens, UniProt P41743); test: Inhibition of PKCiota
T2 sequence (P41743 whole entry): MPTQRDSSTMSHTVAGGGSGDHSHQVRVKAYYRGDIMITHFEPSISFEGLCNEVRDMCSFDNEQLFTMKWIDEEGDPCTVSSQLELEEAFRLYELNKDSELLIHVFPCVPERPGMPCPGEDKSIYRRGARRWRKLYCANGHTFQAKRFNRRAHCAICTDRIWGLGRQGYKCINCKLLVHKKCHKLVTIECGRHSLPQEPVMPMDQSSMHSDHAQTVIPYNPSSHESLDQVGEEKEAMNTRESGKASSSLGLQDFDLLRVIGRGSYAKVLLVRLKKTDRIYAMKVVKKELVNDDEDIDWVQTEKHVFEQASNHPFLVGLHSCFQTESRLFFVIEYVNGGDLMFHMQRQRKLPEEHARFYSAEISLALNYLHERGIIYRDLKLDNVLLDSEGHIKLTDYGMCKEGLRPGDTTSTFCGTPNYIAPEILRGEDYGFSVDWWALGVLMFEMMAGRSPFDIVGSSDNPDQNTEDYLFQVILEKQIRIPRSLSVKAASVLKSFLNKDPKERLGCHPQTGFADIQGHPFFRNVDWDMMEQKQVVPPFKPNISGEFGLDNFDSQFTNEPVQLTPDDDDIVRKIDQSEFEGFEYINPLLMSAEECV

Chain of Serine/threonine-protein kinase pim-1 (P11309 whole entry): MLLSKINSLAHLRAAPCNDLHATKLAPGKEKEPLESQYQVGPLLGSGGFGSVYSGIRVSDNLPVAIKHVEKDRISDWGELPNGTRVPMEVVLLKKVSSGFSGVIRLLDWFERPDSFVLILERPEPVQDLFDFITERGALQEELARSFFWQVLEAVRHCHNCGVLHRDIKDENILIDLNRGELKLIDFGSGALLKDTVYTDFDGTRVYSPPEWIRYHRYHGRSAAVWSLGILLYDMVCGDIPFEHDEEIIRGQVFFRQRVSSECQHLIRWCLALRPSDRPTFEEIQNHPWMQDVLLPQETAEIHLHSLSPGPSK

Ki [1] | Ki [2] | Structure (SMILES) | other results
1270 nM | > 1420 nM | CCn1c2cc(Cl)c(F)cc2c(=O)c2c(=O)on(Cc3ccccc3)c21 | 
271 nM | > 1420 nM | CCn1c2cc(Cl)c(F)cc2c(=O)c2c(=O)on(Cc3cccc(O)c3)c21 | 
36.5 nM | 558 nM | O=c1o[nH]c2c1c(=O)c1cc(F)c(Cl)cc1n2Cc1ccccc1 | 
15 nM | 165 nM | CCCCn1c2cc(Cl)c(F)cc2c(=O)c2c(=O)o[nH]c21 | 
1160 nM | > 1420 nM | CCn1c2cc(Cl)c(F)cc2c(=O)c2c(=O)on(CCO)c21 | 
12.3 nM | 62.8 nM | CC(C)n1c2cc(Cl)c(F)cc2c(=O)c2c(=O)o[nH]c21 | 
4890 nM | > 1420 nM | CCn1c2cc(Cl)c(F)cc2c(=O)c2c(=O)on(CCOCc3ccccc3)c21 | 
 | 43.5 nM | CCn1c2cc(Cl)c(O)cc2c(=O)c2c(=O)o[nH]c21 | Ki [3]: 1730 nM; Ki [4]: > 6880 nM; Ki [5]: > 6670 nM; Ki [6]: 1070 nM; Ki [7]: > 8440 nM; Ki [8]: > 7500 nM; Ki [9]: > 8330 nM

Structure (SMILES) | Ki [1] | Ki [2] | other results
CCn1c2cc(Cl)c(OC)cc2c(=O)c2c(=O)o[nH]c21 | 2700 nM | > 1420 nM | 
